Test results: US7098219B2, “Inhibitors of cellular efflux pumps of microbes” (Wockhart Limited, priority 2000, dated 2006)

These molecules were tested on Staphylococcus aureus 1199 B NorA+ (assay: not given). Conditions: combination with ciprofloxacin, broth microdilution checkerboard, 35° C. 20 hours; FIC index ≦0.5 synergistic, 0.5–2.0 additive, >2.0 antagonistic.
Type: cell-based
Summary of the method: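 Broth microdilution checkerboard with ciprofloxacin against S. aureus 1199B NorA+, pump inhibitor titrated along one axis; inoculum 5×10^5 CFU/ml in Mueller Hinton broth, 35 °C for 20 hours. Growth read by visible turbidity, confirmed by plate reader; FIC index derived from inhibitor MIC in combination versus alone.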

Molecule	FIC INDEX
COc1c(N2CCC(O)C(C)(C)C2)c(F)cc2c(=O)c(C(=O)O)cn(C3CC3)c12 (centres unmarked) [Example 21 (NorA), 1-Cyclopropyl-6-fluoro-8-methoxy-1,4-dihydro-7-(4′-hydroxy-3′,3′-dimethylpiperidin-1-yl)-4-oxo-quinoline-3-carboxylic acid]	0.264
O=C(O)c1cn(-c2ccc(F)cc2F)c2nc(NC3CCNCC3)c(F)cc2c1=O [Example 50 (NorA), 1-(2′,4′-Difluorophenyl)-6-fluoro-1,4-dihydro-7-(piperidin-4-yl-amino)-4-oxo-1,8-naphthyridine-3-carboxylic acid]	0.314

Each molecule was assayed on Mef Efflux Pump of Streptococcus pneumoniae 3514 and Streptococcus pyogenes 26-00 (assay: Two plate diffusion assay for macrolide (Mef) efflux pump inhibitors, azithromycin plate versus control plate). Conditions: zone of inhibition in antibiotic plate (method: azithromycin 0.5 mcg/ml; footnote: levofloxacin) minus water control plate; strain not given.
Type: cell-based

Molecule	Difference in Zone diameter Z1 (mm)
CC1CCc2c(N3CCC(O)C(C)(C)C3)ccc3c(=O)c(C(=O)O)cn1c23 (racemic) [Example 43 (Mef), (RS)-(±)-6,7-dihydro-8-(4′-hydroxy-3′,3′-dimethylpiperidin-1-yl)-5-methyl-1-oxo-1H,5H-benzo[i,j]quinolizine-2-carboxylic acid]	10 mm
CCCCOC(=O)c1cn(C2CC2)c2c(OC)c(N3CCC(N)C(C)(C)C3)c(F)cc2c1=O (centres unmarked) [Example 4 (Mef), n-Butyl 1-cyclopropyl-6-fluoro-8-methoxy-1,4-dihydro-7-(4′-amino-3′,3′-dimethyl-piperidin-1-yl)-4-oxo-quinoline-3-carboxylate]	11 mm
CNC1CCN(c2c(F)c(N)c3c(=O)c(C(=O)O)cn(C4CC4)c3c2OC)CC1(C)C (centres unmarked) [Example 2 (Mef), 5-Amino-1-cyclopropyl-6-fluoro-8-methoxy-1,4-dihydro-7-{4′-(methylamino)-3′,3′-dimethylpiperidin-1-yl}-4-oxo-quinoline-3-carboxylic acid]	8 mm
CC1(C)CN(c2nc3c(cc2F)c(=O)c(C(=O)O)cn3-c2ccc(F)cc2F)CCC1O (centres unmarked) [Example 24 (Mef), 1-(2,4-Difluorophenyl)-6-fluoro-1,4-dihydro-7-(3′,3′-dimethyl-4′-hydroxypiperdin-1-yl)-4-oxo-naphthyridine-3-carboxylic acid]	10 mm
CC1CN(c2nc3c(cc2F)c(=O)c(C(=O)O)cn3-c2ccc(F)cc2F)CC(C)C1N (centres unmarked) [Example 37 (Mef), 1-(2,4-difluorophenyl)-6-fluoro-1,4-dihydro-7-(4-amino-3,5-dimethylpiperidin-1-yl)-4-oxo-1,8-naphthyridine-3-carboxylic acid]	7 mm
CC1COc2c(N3CCC(O)C(CN)C3)c(F)cc3c(=O)c(C(=O)O)cn1c23 (centres unmarked) [Example 27 (Mef), 7H-Pyrido[1,2,3-de]-1,4-benzoxazine-9-fluoro-2,3-dihydro-3-methyl-10-(3′-aminomethyl-4′-hydroxypiperidin-1′-yl)-7-oxo-6-carboxylic acid]	16 mm
1-Cyclopropyl-6-fluoro-8-methoxy-1,4-dihydro-7-{-4′-(t-butoxycarbonyl (L)-Ala-Ala)amino 3′,3′-dimethylpiperidin-1-yl}-4-oxo-quinoline-3-carboxylic acid [Example 34 (Mef)]	8 mm

Each molecule was assayed on Pseudomonas aeruginosa 23587 (assay: Antibiotic diffusion assay, levofloxacin plate versus water control plate). Conditions: zone of inhibition in levofloxacin (5 mcg/ml) plate minus water control plate; Mueller Hinton Agar, 35° C. 20 hours.
Type: cell-based
Protocol: Testing method for Inhibition of the Efflux Pumps of Pseudomonas aeruzinosa 23587, E. coli 2051, Streptococcus pneumoniae 3514 and Streptococcus pyozenus 26-00
Antibiotic Diffusion Assay
The activity of efflux pump inhibitor was also assessed using an antibiotic diffusion assay. For this assay Pseudomonas aeruginosa 23587 is used. Pseudomonas aeruginosa 23587 is a clinical isolate containing multiple efflux pumps which can be mexAB, mexCD, mexEF but not limited to mex classification only. Pseudomonas aeruginosa are grown in tryptic soya broth for 20 hours at 35° C. Two antibiotic assay plates are prepared in Mueller Hinton Agar using above inoculum. The bacterial count in a plate is 1×10^6 cells/ml. In one of the plates, levofloxacin is incorporated at 5 mcg/ml, while in the control plate an equivalent amount of water is added. […]. The plates are incubated at 35° C. for 20 hours and the zone of inhibition was recorded in mm (table 2). The difference in the diameter of zone of inhibition was calculated by subtracting from the diameter of the zone of inhibition in the levofloxacin containing plate the diameter of the zone of inhibition in the water containing control plate. Example, if the diameter of the zone of inhibition in the levofloxacin plate is X mm and the diameter of the zone of inhibition in the control plate is Y mm, the difference Z=X−Y and is a measure of the activity of the efflux pump inhibitor.

Molecule	Difference in Zone diameter Z1 (mm)
CCC1CN(c2nc3c(cc2F)c(=O)c(C(=O)O)cn3C2CC2)CCC1N (centres unmarked) [Example 20 (P. aeruginosa), 1-Cyclopropyl-6-fluoro-1,4-dihydro-7-(4′-amino-3′-ethylpiperidin-1-yl)-4-oxo-naphthyridine-3-carboxylic acid]	6 mm
CC1CN(c2c(F)cc3c(=O)c(C(=O)O)cn4c3c2CCC4C)CCC1O (racemic) [Example 34 (P. aeruginosa), (RS)-(+)-9-Fluoro-6,7-dihydro-8-(cis-4′-hydroxy-3′-methylpiperidin-1-yl}-5-methyl-1H,5H-benzo[i,j]quinolizine-2-carboxylic acid]	6 mm
COc1c(N2CCC(N(C)C)CC2)c(F)cc2c(=O)c(C(=O)O)cn(C3CC3)c12 [Example 7 (P. aeruginosa), 1-Cyclopropyl-6-fluoro-8-methoxy-1,4-dihydro-7-{4′-dimethylaminopiperidin-1-yl}-4-oxo-quinoline-3-carboxylic acid]	5 mm
COc1c(N2CCC(C)(O)CC2)c(F)cc2c(=O)c(C(=O)O)cn(C3CC3)c12 [Example 8 (P. aeruginosa), 1-Cyclopropyl-6-fluoro-8-methoxy-1,4-dihydro-7-(4′-hydroxy-4′-methylpiperidin-1-yl)-4-oxo-quinoline-3-carboxylic acid]	5 mm
(S)-(−)-9-Fluoro-6,7-dihydro-8-(4′-hydroxypiperidin-1-yl)-5-methyl-1-oxo-1H,5H-benzo[i,j]quinolizine-2-carboxylic acid. (L) histidine salt [Example 25 (P. aeruginosa)]	5 mm
C[C@H](N)C(=O)OC1CCN(c2c(F)cc3c(=O)c(C(=O)O)cn4c3c2CC[C@@H]4C)CC1.Cl [Example 30 (P. aeruginosa), (S)-(−)-9-Fluoro-6,7-dihydro-8-{4′-(L-alanyloxy)piperidin-1-yl}-5-methyl-1-oxo-1H,5H-benzo[i,j]quinolizine-2-carboxylic acid hydrochloride]	9 mm
COc1c(N2CCC(O)C(C)(C)C2)c(F)cc2c(=O)c(C(=O)O)cn(C3CC3)c12 (centres unmarked) [Example 21 (NorA), 1-Cyclopropyl-6-fluoro-8-methoxy-1,4-dihydro-7-(4′-hydroxy-3′,3′-dimethylpiperidin-1-yl)-4-oxo-quinoline-3-carboxylic acid]	8 mm
CCN1CCN(c2cc3c(cc2F)c(=O)c(C(=O)O)cn3C2CC2)CC1C (centres unmarked) [Example 13 (P. aeruginosa), 1-Cyclopropyl-6-fluoro-1,4-dihydro-7-(4′-ethyl-3′-methylpiperazin-1-yl)-4-oxo-quinoline-3-carboxylic acid]	4 mm
O=C(O)c1cn(-c2ccc(F)cc2F)c2nc(NC3CCNCC3)c(F)cc2c1=O [Example 50 (NorA), 1-(2′,4′-Difluorophenyl)-6-fluoro-1,4-dihydro-7-(piperidin-4-yl-amino)-4-oxo-1,8-naphthyridine-3-carboxylic acid]	6 mm
C[C@@H]1CCc2c(N3CCC(OC(=O)[C@H](N)Cc4ccccc4)CC3)c(F)cc3c(=O)c(C(=O)O)cn1c23.Cl (racemic) [Example 26 (P. aeruginosa), (RS)-(±)-9-Fuoro-6,7-dihydro-8-{4′-(D-phenylalaninoxy)piperidin-1-yl}-5-methyl-1-oxo-1H,5H-benzo[i,j]quinolizine-2-carboxylic acid hydrochloride]	12 mm
Nc1c(F)c(N2CCC(N)C2)c(F)c2c1c(=O)c(C(=O)O)cn2-c1ccc(F)cc1F (centres unmarked) [Example 16 (P. aeruginosa), 5-Amino-1-(2′,4′-difluorophenyl)-6,8-difluoro-1,4-dihydro-7-(3-aminopyrrolidine-1-yl)-4-oxo-quinoline-3-carboxylic acid]	3 mm
CC1CCc2c(N3CC[C@@H](O)[C@H](C)C3)c(F)cc3c(=O)c(C(=O)O)cn1c23 (mixture of isomers) [Example 33 (P. aeruginosa), (RS)-(+)-9-Fluoro-6,7-dihydro-8-(trans-4′-hydroxy-3′-methylpiperidin-1-yl)-5-methyl-1-oxo-1H,5H-benzo[i,j]quinolizine-2-carboxylic acid]	6 mm
COc1c(N2CCC(N)C(C)C2)c(F)c(N)c2c(=O)c(C(=O)O)cn(C3CC3)c12 (centres unmarked) [Example 4 (P. aeruginosa), 5-Amino-1-cyclopropyl-6-fluoro-8-methoxy-1,4-dihydro-7-(4′-amino-3′-methylpiperidin-1-yl)-4-oxo-quinoline-3-carboxylic acid]	5 mm
CCNC1CCN(c2c(F)c(N)c3c(=O)c(C(=O)O)cn(C4CC4)c3c2OC)CC1(C)C (centres unmarked) [Example 5 (P. aeruginosa), 5-Amino-1-cyclopropyl-6-fluoro-8-methoxy-1,4-dihydro-7-{3′,3′-dimethyl-4′-ethylaminopiperidin-1-yl}-4-oxo-quinoline-3-carboxylic acid]	3 mm
NCC1CN(c2c(F)c(N)c3c(=O)c(C(=O)O)cn(C4CC4)c3c2F)CCC1O (centres unmarked) [Example 11 (P. aeruginosa), 5-Amino-1-(cyclopropyl)-6,8-difluoro-1,4-dihydro-7-(3′-aminomethyl-4′-hydroxy-piperidin-1-yl)-4-oxo-quinoline-3-carboxylic acid]	3 mm
COC1CCN(c2cc3c(c(C)c2F)c(=O)c(C(=O)O)cn3C2CC2)CC1 [Example 1 (P. aeruginosa), 1-Cyclopropyl-6-fluoro-1,4-dihydro-5-methyl-7-(4′-methoxypiperidin-1-yl)-4-oxo-quinoline-3-carboxylic acid]	13 mm
CCOC(=O)C1(N)CCN(c2c(F)c(N)c3c(=O)c(C(=O)O)cn(C4CC4)c3c2F)C1 (centres unmarked) [Example 17 (P. aeruginosa)]	8 mm
